In patent publication US6369260B1, “Process for the preparation of a pharmacologically active chemical combination” (Laboratori Alchemica S.r.l., priority 1994, dated 2002):
Where two headings read alike, the source gives them in different places.

What was measured:
rat = type: in vivo
Protocol: The gastrointestinal tolerability was evaluated by oral administration in the rat.

[1] = tested on: collagen-stimulated platelets; test: platelet anti-aggregating activity in vivo; conditions: power ratio related to the basic product taken as unit standard; oral administration
Protocol: The platelet anti-aggregating activity was evaluated in vivo on the collagen-stimulated platelets, according to the method described by PINON, J.Pharmacol.Methods 12,79 (1984); the gastrointestinal tolerability was evaluated by oral administration in the rat.
The results are shown in Table 2, which summarizes the study of the antithrombotic properties of said products (III), (XIII) (XVII) and (XVIII) after their oral administration.

carrageen edema = test: anti-inflammatory activity, carrageen edema method; type: in vivo; conditions: power ratio related to the basic product taken as unit standard; oral administration, rat
Protocol: The anti-inflammatory activity was determined according to the method of carrageen edema, as described by WINTER et al. Proc.Soc.Exp.Biol.Med. 111,544 (1962), in the rat.
The results are shown in Table 1, which summarizes the study of the anti-inflammatory properties of the compounds under examination after oral administration.

[2] = plasmatic concentration after oral administration in the rats; conditions: for native products found in plasma: since the first hours of administration; for time of plasmatic elimination half-life versus native compounds: sometimes even by 300% higher
[3] = rat, in vivo, po
[4] = gastrointestinal tolerability following intraperitoneal administration; type: in vivo
Text: In addition, the gastrointestinal tolerability was examined in (CCCCV), as compared to the native agent.

[5] = tested on: Mycobacterium butyricum induced paw volume increase; test: anti-arthritic activity, standard adjuvant arthritis method; type: in vivo; conditions: intraperitoneal, rat
Protocol: The anti-arthritic activity of (CCCCV) was determined in the rat, according to the standard adjuvant arthritis method, consisting in the injection of a suspension killed Mycobacterium butyricum in mineral oil in the right hind paw under light ether anesthesia. The volume of the left hindpaw was measured by plethysmography.

[6] = Table 2, relative to Aspirin = 1, oral administration
[7] = Table 1, power ratio related to the basic product taken as unit standard, oral administration

CC(=O)Oc1ccccc1C(=O)OCCCCOC(=O)c1ccccc1OC(C)=O [(XIII), 1,4-buthanediol bis-acetylsalycylate]
GASTROINT. TOLERABIL. (rat; [6]): 0.1 | PLATELET ANTI-AGGREGATING ACTIVITY [1]: 0.8

CS(=O)(=O)Nc1ccc([N+](=O)[O-])cc1Oc1ccccc1 [Nimesulide, reference compound]
GASTROINT. TOLERABILITY (rat; [7]): 1

CC(=O)Oc1ccccc1C(=O)O [Aspirin, reference compound]
GASTROINT. TOLERABIL. (rat; in vivo, po): 1 | PLATELET ANTI-AGGREGATING ACTIVITY [1]: 1

CC(C(=O)OCCCCOC(=O)C(C)c1cccc(C(=O)c2ccccc2)c1)c1cccc(C(=O)c2ccccc2)c1 (centres unmarked) [(VII), 1,4-butandiole bis-2-[(3-benzoyl)phenyl]propionate]
GASTROINT. TOLERABILITY (rat; [7]): 0.3 | ANTIEDEMIGENIC ACTIVITY (carrageen edema): 0.9

CC(C(=O)OCCCCOC(=O)C(C)c1ccc(-c2ccccc2)c(F)c1)c1ccc(-c2ccccc2)c(F)c1 (centres unmarked) [(IX)]
GASTROINT. TOLERABILITY (rat; [7]): 0.3 | native products found in plasma [2]: significant quantities of the native products were found | time of plasmatic elimination half-life versus native compounds [2]: significantly higher

CC(=O)Oc1ccccc1C(=O)OCCCCCCOC(=O)c1ccccc1OC(C)=O [(III), 1.6-hexandiol bis-acetylsalicylate]
GASTROINT. TOLERABIL. (rat; [6]): 0.1 | PLATELET ANTI-AGGREGATING ACTIVITY [1]: 0.8

COc1ccc2cc([C@H](C)C(=O)O)ccc2c1 [Naproxen, reference compound]
GASTROINT. TOLERABILITY (rat; in vivo, po): 1

CS(=O)(=O)N(C(=O)CCC(=O)N(c1ccc([N+](=O)[O-])cc1Oc1ccccc1)S(C)(=O)=O)c1ccc([N+](=O)[O-])cc1Oc1ccccc1 [(XI), bis-(N-[(2-phenoxy-4-nitro)phenyl]-N′-methansulfonyl)succinamide]
GASTROINT. TOLERABILITY (rat; [7]): 0.8 | native products found in plasma [2]: significant quantities of the native products were found | time of plasmatic elimination half-life versus native compounds [2]: significantly higher

C[C@]12CCC(=O)C=C1CC[C@@H]1[C@@H]2[C@@H](O)C[C@@]2(C)[C@H]1CC[C@]2(O)C(=O)COC(=O)CCCCCCCC(=O)OCC(=O)[C@]1(O)CC[C@@H]2[C@H]3CCC4=CC(=O)CC[C@@]4(C)[C@@H]3[C@H](O)C[C@]21C [(CCCCV), di(21-hydrocortisone)azelate]
time of plasmatic elimination half-life versus native compounds [3]: significantly higher | gastrointestinal tolerability compared to the native agent [4]: significantly better tolerated than the parent compound | anti-arthritic potency relative to parent compound [5]: comparable with the parent compound | duration of pharmacological activity relative to parent compound [5]: greater duration | inhibition of Mycobacterium butyricum induced paw volume increase ([5]; suspended in carboxymethylcellulose 0.5-2%): effective in inhibiting significantly | native products found in plasma [2]: significant quantities of the native products were found

O=C(Cc1ccccc1Nc1c(Cl)cccc1Cl)OCCCCOC(=O)Cc1ccccc1Nc1c(Cl)cccc1Cl [(X)]
GASTROINT. TOLERABILITY (rat; [7]): 0.1

CC(C(=O)O)c1ccc(-c2ccccc2)c(F)c1 (centres unmarked) [Flurbiprofen, reference compound]
GASTROINT. TOLERABILITY (rat; in vivo, po): 1

O=C(O)Cc1ccccc1Nc1c(Cl)cccc1Cl [Diclofenac, reference compound]
GASTROINT. TOLERABILITY (rat; [7]): 1

CC(C(=O)O)c1cccc(C(=O)c2ccccc2)c1 (centres unmarked) [Ketoprofen, reference compound]
GASTROINT. TOLERABILITY (rat; [7]): 1
